# Results reported in US20070021418A1, “Method of inhibiting production of osteopontin” (Kowa Co., LTD., priority 2003, published 2007).
# Tested on: OPN production in RPMI8226 cells
# Test: OPN production inhibiting effect in cultured RPMI8226 cells (ELISA of culture supernatant)
# Type: cell-based, human
# Conditions: Homo sapiens, RPMI-8226, 72 h; RPMI8226 myeloma cells; 3 days prophase + 3 days anaphase culture; 0.1-10 μmol/L; OPN in culture supernatant by ELISA; logistic curve; read-out: IC50 (OPN production inhibition)
# Protocol: Compounds 1 to 6 were separately dissolved in dimethylsulfoxide (DMSO) to prepare 20 mmol/L solutions of the respective compounds. Aliquots of those solutions were diluted further to prepare 6, 2, 0.6 and 0.2 mmol/L solutions of the respective compounds. The DMSO solutions of the respective compounds (1 to 6) (concentrations: 0.2 to 20 mmol/L) and DMSO (as a compound non-addition group) were separately diluted 1,000-fold with a culture medium (10% fetal-bovine-serum (FBS)-added RPMI-1640 medium) to prepare 0 (non-addition group), 0.2, 0.6, 2, 6 and 20 μmol/L solutions of the respective compounds (1-6).
# 3) Study on the OPN Production Inhibiting Effect of the Individual Compounds in RPMI8226 Cells
# A 2×10^5 cells/mL cell suspension of RPMI8226 cells was prepared, and was seeded 2 mL by 2 mL per well on a 6-well plates. To the wells, the individual solutions prepared in the procedure 2) (the solutions of Compounds 1 to 6, having concentrations of 0 (non-addition group), 0.2, 0.6, 2, 6, and 20 μmol/L, respectively) were added 2 mL by 2 mL per well, followed by mixing to bring the final concentrations of Compound 1-6 in the individual wells to 0 (non-added group), 0.1, 0.3, 1, 3 and 10 μmol/L. The cells of those conditions were cultured as prophase culture at 37° C. for 3 days in the presence of 5% CO2.
# After the above-described culture, the cells in the respective wells were collected, and were counted well by well. Those cells were again suspended separately in aliquots of a 2×10^5 cells/mL suspension, and the cells of the respective conditions were each seeded 0.5 mL by 0.5 mL per well in two wells. To the wells of the respective conditions, individual solutions prepared at the same concentrations as those at the time of the culture in a similar manner as in the prophase culture (individual solutions of Compounds 1 to 6, having concentrations of […], respectively) were added 0.5 mL by 0.5 mL per sell to the individual wells. After mixing, the cells were cultured as anaphase culture at 37° C. for 3 days in the presence of 5% CO2.
# Subsequent to the completion of the anaphase culture, culture supernatants were separately collected from the respective wells, and the OPN concentrations in the individual culture supernatants were quantitated with an absorptiometer by ELISA (Human Osteopontin Measurement Kit IBL; IBL Co., Ltd.).
# Using the SAS Preclinical Package, Version 5.0, the measurement values were analyzed by the following procedure. Described specifically, the concentrations were logarithmically converted (the compound non-addition group (0 μmol/L) was replaced by 1 pmol/L), and using the measurement values (6 concentrations, 2 measurement values per concentration, 12 measurement values in total), plotting into a logistic curve was conducted. From the curve, concentrations (IC50) which give 50% reactivity were calculated.
row,IC50,SMILES
1,2560 nM,"CSc1ccc(-c2nn(Cc3ccccc3)c(=O)cc2-c2ccc(Cl)cc2)cc1 [Compound 4, 2-benzyl-5-(4-chlorophenyl)-6-[4-(methylthio)phenyl]-2H-pyridazin-3-one]"
2,2760 nM,"COc1ccc(-c2cc(=O)n(CC=Cc3ccc(Cl)cc3)nc2-c2ccc(OC)cc2)cc1 [Compound 3, 5,6-bis(4-methoxyphenyl)-2-(4-chlorocinnamyl)-2H-pyridazin-3-one]"
3,1120 nM,"CCn1nc(-c2ccc(OC)cc2)c(-c2ccc(OC)cc2)cc1=O [Compound 6, 5,6-bis(4-methoxyphenyl)-2-ethyl-2H-pyridazin-3-one]"
4,2090 nM,"CSc1ccc(-c2nn(Cc3ccccn3)c(=S)cc2-c2ccc(Cl)cc2)cc1 [Compound 1, 5-(4-chlorophenyl)-6-[4-(methylthio)phenyl]-2-(2-pyridylmethyl)-2H-pyridazine-3-thione methanesulfonate]"
5,2910 nM,"CSc1ccc(-c2nn(Cc3cccnc3)c(=O)cc2-c2ccc(Cl)cc2)cc1 [Compound 2, 5-(4-chlorophenyl)-6-[4-(methylthio)phenyl]-2-(3-pyridylmethyl)-2H-pyridazin-3-one methanesulfonate]"

# Same assay, conditions: RPMI8226 myeloma cells; 3 days prophase + 3 days anaphase culture; 0.1-10 μmol/L; OPN in culture supernatant by ELISA; logistic curve; read-out: IC50 (OPN production inhibition)
row,IC50,SMILES
1,2420 nM,COc1ccc(-c2nn(Cc3ccc(Cl)cc3)c(=O)cc2-c2ccncc2)cc1 [Compound 5]
